Source: ChEMBL document CHEMBL4619767, “Precursor-Directed Biosynthesis and Fluorescence Labeling of Clickable Microcystins” (J Nat Prod, 2020)
Numbered stars: 1 amine (or outer) side, 2 acyl side, 3 side chain; on linkers, the order of the positions; unused ones are H or OH. Bridge positions count the residues as written; N and C are the ends. Square brackets hold non-standard residues; d marks the D form. Peptide text beside a SMILES is read from it. * marks the point of attachment. Adda = CO[C@@H](Cc1ccccc1)[C@@H](C)/C=C(C)/C=C/[C@H](N[*:1])[C@H](C)C(=O)[*:2]; dAsp(3S-Me) = C[C@H](C(=O)[*:3])[C@@H](N[*:1])C(=O)[*:2]; d(γGlu) = O=C(O)[C@@H](CCC(=O)[*:2])N[*:1]; NMeDha = C=C(NC)C(=O)O; Propargyl = C#CC*

Key:
HEK293 [1] = experiment: Cytotoxicity against OATP1B1 (-/-) HEK293 cells incubated for 48 hrs by sulforhodamine B assay; assay type: ADME, cell-based, Homo sapiens
[2] = Drug uptake in OATP1B1 (-/-) HEK293 cells at 100 nM measured up to 8 mins by fluorescence time-lapse microscopy; assay type: ADME, cell-based; settings: human, hek293, 8 min, 0.1 µM
[3] = Drug uptake in OATP1B3 (-/-) HEK293 cells at 100 nM measured up to 8 mins by fluorescence time-lapse microscopy; assay type: ADME, cell-based; settings: human, hek293, 8 min, 0.1 µM
HEK293 [4] = experiment: Cytotoxicity against OATP1B3 (-/-) HEK293 cells incubated for 48 hrs by sulforhodamine B assay; assay type: ADME, cell-based, Homo sapiens

| Compound | EC50 (HEK293 [1]) | Drug uptake [2] | Drug uptake [3] | EC50 (HEK293 [4]) |
| --- | --- | --- | --- | --- |
| C=C1C(=O)N[C@H](C)C(=O)N[C@@H](Cc2ccc(OCc3cn(-c4cc5ccc(O)cc5oc4=O)nn3)cc2)C(=O)N[C@@H](C(=O)O)[C@H](C)C(=O)N[C@@H](CCCNC(=N)N)C(=O)N[C@@H](/C=C/C(C)=C/[C@H](C)[C@H](Cc2ccccc2)OC)[C@H](C)C(=O)N[C@@H](C(=O)O)CCC(=O)N1C | > 2 µM | Not Active | Not Active | > 2 µM |
| C=C1C(=O)N[C@H](C)C(=O)N[C@@H](Cc2ccc(O)cc2)C(=O)N[C@@H](C(=O)O)[C@H](C)C(=O)N[C@@H](CCCNC(=N)N)C(=O)N[C@@H](/C=C/C(C)=C/[C@H](C)[C@H](Cc2ccccc2)OC)[C@H](C)C(=O)N[C@@H](C(=O)O)CCC(=O)N1C (R[Adda][d(γGlu)][NMeDha][dA]Y[dAsp(3S-Me)]-OH; lactam N-7) | > 2 µM |  |  | > 2 µM |
| C#CCOc1ccc(C[C@@H]2NC(=O)[C@@H](C)NC(=O)C(=C)N(C)C(=O)CC[C@H](C(=O)O)NC(=O)[C@@H](C)[C@H](/C=C/C(C)=C/[C@H](C)[C@H](Cc3ccccc3)OC)NC(=O)[C@H](CCCNC(=N)N)NC(=O)[C@@H](C)[C@H](C(=O)O)NC2=O)cc1 (R[Adda][d(γGlu)][NMeDha][dA]Y(Propargyl)[dAsp(3S-Me)]-OH; lactam N-7) | > 2 µM |  |  | > 2 µM |
